Source: ChEMBL document CHEMBL3817806, “Novel benzimidazol-2-ylidene carbene precursors and their silver(I) complexes: Potential antimicrobial agents” (2016)
Values after ≈ are worked out from the molar mass of the structure shown.

Experiments:
Assay type in all cases: functional
[1] = tested on: Candida tropicalis; assay: Antifungal activity against Candida tropicalis ATCC 13803 after 48 hrs by agar dilution method; settings: ATCC 13803, 48 h
[2] = tested on: Candida albicans; assay: Antifungal activity against Candida albicans ATCC 10231 after 48 hrs by agar dilution method; settings: ATCC 10231, 48 h
[3] = tested on: Pseudomonas aeruginosa; assay: Antibacterial activity against Pseudomonas aeruginosa ATCC 27853 after 16 to 20 hrs by agar dilution method
[4] = tested on: Staphylococcus aureus; assay: Antibacterial activity against Staphylococcus aureus ATCC 29213 after 16 to 20 hrs by agar dilution method
[5] = tested on: Escherichia coli; assay: Antibacterial activity against Escherichia coli ATCC 25922 after 16 to 20 hrs by agar dilution method
[6] = tested on: Enterococcus faecalis; assay: Antibacterial activity against Enterococcus faecalis ATCC 29212 after 16 to 20 hrs by agar dilution method

Work on `OC(Cn1cncn1)(Cn1cncn1)c1ccc(F)cc1F` [FLUCONAZOLE] yielded an MIC [1] of 3.12 µg/mL (≈ 10.2 µM) and an MIC [2] of 3.12 µg/mL (≈ 10.2 µM).

`CCOc1ccccc1OCCn1c[n+](CCOC)c2ccccc21.[Br-]` was tested, and the MIC [3] was 800 µg/mL, the MIC [4] was 800 µg/mL and the MIC [1] was 800 µg/mL. For the same molecule, the MIC [5] was 800 µg/mL, the MIC [6] was 800 µg/mL and the MIC [2] was 800 µg/mL.

For `CCCC[n+]1cn(CCOc2ccccc2OCC)c2ccccc21.[Br-]`, the MIC [3] was 50 µg/mL, the MIC [4] was 50 µg/mL and the MIC [1] was 25 µg/mL. For the same molecule, the MIC [5] was 50 µg/mL, the MIC [6] was 50 µg/mL and the MIC [2] was 25 µg/mL.

`CC1(C)S[C@@H]2[C@H](NC(=O)[C@H](N)c3ccccc3)C(=O)N2[C@H]1C(=O)O` [AMPICILLIN] gave an MIC [4] of 3.12 µg/mL (≈ 8.93 µM), an MIC [5] of 3.12 µg/mL (≈ 8.93 µM) and an MIC [6] of 1.56 µg/mL (≈ 4.46 µM).

With `CCOc1ccccc1OCCn1c[n+](Cc2c(C)c(C)cc(C)c2C)c2ccccc21.[Br-]` the MIC [3] was 800 µg/mL, the MIC [4] was 400 µg/mL and the MIC [1] was 400 µg/mL. The MIC [5] was 400 µg/mL, the MIC [6] was 800 µg/mL and the MIC [2] was 400 µg/mL.

In the case of `CCOc1ccccc1OCCn1c[n+](Cc2ccc(C(C)C)cc2)c2ccccc21.[Br-]`, the MIC [3] is reported as 800 µg/mL, the MIC [4] is reported as 800 µg/mL and the MIC [1] is reported as 400 µg/mL. The MIC [5] was 800 µg/mL, the MIC [6] was 800 µg/mL and the MIC [2] was 400 µg/mL.

Work on `CCOc1ccccc1OCCn1c[n+](CCOc2ccccc2OCC)c2ccccc21.[Br-]` yielded an MIC [3] of 400 µg/mL, an MIC [4] of 200 µg/mL and an MIC [1] of 200 µg/mL. For the same molecule, the MIC [5] was 200 µg/mL, the MIC [6] was 400 µg/mL and the MIC [2] was 200 µg/mL.

In the case of `CCOc1ccccc1OCCn1c[n+](Cc2cccc(OC)c2)c2ccccc21.[Cl-]`, the MIC [3] is reported as 800 µg/mL, the MIC [4] is reported as 800 µg/mL and the MIC [1] is reported as 800 µg/mL. It also gave an MIC [5] of 800 µg/mL, an MIC [6] of 800 µg/mL and an MIC [2] of 800 µg/mL.

`CCOc1ccccc1OCCn1c[n+](Cc2c(C)cc(C)cc2C)c2ccccc21.[Br-]` showed an MIC [3] of 800 µg/mL, an MIC [4] of 50 µg/mL and an MIC [1] of 50 µg/mL. For the same molecule, the MIC [5] was 50 µg/mL, the MIC [6] was 800 µg/mL and the MIC [2] was 50 µg/mL.

For `CCOc1ccccc1OCCn1c[n+](Cc2ccc(C(C)(C)C)cc2)c2ccccc21.[Br-]`, the MIC [3] was 400 µg/mL, the MIC [4] was 50 µg/mL and the MIC [1] was 50 µg/mL. For the same molecule, the MIC [5] was 50 µg/mL, the MIC [6] was 200 µg/mL and the MIC [2] was 50 µg/mL.

`O=C(O)c1cn(C2CC2)c2cc(N3CCNCC3)c(F)cc2c1=O` [CIPROFLOXACIN] was tested, and the MIC [3] was 3.12 µg/mL (≈ 9.42 µM), the MIC [4] was 0.39 µg/mL (≈ 1.18 µM) and the MIC [6] was 0.78 µg/mL (≈ 2.35 µM).
